According to patent publication US20250388593A1 (MITSUBISHI TANABE PHARMA CORPORATION, priority 2023, published 2025):

Experiments:
[1] = Stability against racemization (chiral HPLC); format: physicochemical
Experimental: Test Example 7: Stability Against Racemization Each test sample (1 mg) was dissolved in CH3CN (1 mL), and 0.1 M N-methylmorpholine aqueous solution (adjusted to pH 7.4 with 1N HCl) (1 mL) was added to dilute the solution twofold, thereby preparing a solution with a final concentration of 0.5 mg/mL. The sample was divided into nine portions of 150 μL each, and each portion was placed in a sampler set to 37° C. The enantiomers in the sample were quantified at 0, 1, 3, 6, 24, 48, 72, and 167 hours under the following HPLC conditions, and the enantiomeric excess (ee) at each time point was calculated.
As test samples, Example Compound 211-1 was used as an example, while (S)-thalidomide represented by the following formula
• Equipment: ACQUITY UPLC H-Class Waters • Column: […] IE-3 (3 μm, 4.6×150 mm) Daicel Corporation • Flow rate: 0.5 mL/min • Column temperature: 25° C.
• Mobile phase: 100% MeOH • Injection volume: 0.7 μL • Detection wavelength: 217.0 nm
• Mobile phase: 100% MeOH • Injection volume: 1.2 μL • Detection wavelength: 221.0 nm
• Mobile phase: EtOH/CH3CN=90/10 • Injection volume: 1.5 μL • Detection wavelength: 221.0 nm

CRBN truncate (318-426) = CRBN truncate (318-426) (Homo sapiens (Human), UniProt Q96SW2); experiment: Measurement of molecular interactions using surface plasmon resonance (SPR), Biacore T200; format: binding; details: 25° C., immobilized CRBN truncate, upper limit of measurement 200 μM
Summary of the method: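 Compound injections used 60 s association and 120 s dissociation in HEPES pH 7.5 buffer (150 mM NaCl, 1 mM TCEP, 0.005% Tween 20, 2% DMSO). The ligand was CRBN truncate 318-426 bearing a C-terminal Avi-tag, immobilised via streptavidin on an SA sensor chip.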

Sequence of CRBN truncate (318-426) (Q96SW2 318-426): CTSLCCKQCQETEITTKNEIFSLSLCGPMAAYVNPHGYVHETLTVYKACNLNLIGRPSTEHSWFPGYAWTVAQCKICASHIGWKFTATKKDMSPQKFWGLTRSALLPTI

Kd (CRBN truncate (318-426)) [µM]	SMILES	further results
< 50	Cc1sc2c(c1C)C(c1ccc(Cl)cc1)=N[C@@H](CC(=O)NCCCCCCCCNC(=O)CCc1ccc3c(c1)sc(=O)n3C1CCCC(=O)NC1=O)c1nnc(C)n1-2 (stereo partly drawn) [Example 342, N-[8-[[2-[(9S)-7-(4-chlorophenyl)-4,5,13-trimethyl-3-thia-1,8,11,12-tetraazatricyclo[8.3.0.02,6]trideca-2(6),4,7,10,12-pentaen-9-yl]acetyl]amino]octyl]-3-[3-(2,7-dioxoazepan-3-yl)-2-oxo-1,3-benzothiazol-6-yl]propanamide]	–
< 50	Cc1sc2c(c1C)C(c1ccc(Cl)cc1)=N[C@@H](CC(=O)NCCCCCCCCNC(=O)CCc1cccc3c(=O)n(C4CCCC(=O)NC4=O)ccc13)c1nnc(C)n1-2 (stereo partly drawn) [Example 343, N-[8-[[2-[(9S)-7-(4-chlorophenyl)-4,5,13-trimethyl-3-thia-1,8,11,12-tetraazatricyclo[8.3.0.02,6]trideca-2(6),4,7,10,12-pentaen-9-yl]acetyl]amino]octyl]-3-[2-(2,7-dioxoazepan-3-yl)-1-oxoisoquinolin-5-yl]propanamide]	–
< 50	Cc1sc2c(c1C)C(c1ccc(Cl)cc1)=N[C@@H](CC(=O)NCCCCCCCCNC(=O)CCc1ccc3c(=O)n(C4CCCC(=O)NC4=O)c(=O)n(C)c3c1)c1nnc(C)n1-2 (stereo partly drawn) [Example 344, N-[8-[[2-[(9S)-7-(4-chlorophenyl)-4,5,13-trimethyl-3-thia-1,8,11,12-tetraazatricyclo[8.3.0.02,6]trideca-2(6),4,7,10,12-pentaen-9-yl]acetyl]amino]octyl]-3-[3-(2,7-dioxoazepan-3-yl)-1-methyl-2,4-dioxo-quinazolin-7-yl]propanamide]	–
50 to 100	Cc1sc2c(c1C)C(c1ccc(Cl)cc1)=N[C@@H](CC(=O)NCCCCCCCNC(=O)CN1CCC3(CCCC(=O)NC3=O)CC1=O)c1nnc(C)n1-2 (stereo partly drawn) [Example 345, 2-[(9S)-7-(4-chlorophenyl)-4,5,13-trimethyl-3-thia-1,8,11,12-tetraazatricyclo[8.3.0.02,6]trideca-2(6),4,7,10,12-pentaen-9-yl]-N-[7-[[2-(4,7,9-trioxo-3,8-diazaspiro[5.6]dodecan-3-yl)acetyl]amino]heptyl]acetamide]	–
< 50	Cc1sc2c(c1C)C(c1ccc(Cl)cc1)=N[C@@H](CC(=O)NCCCCCCCCNC(=O)CCc1ccc3c(N4CCCC(=O)NC4=O)nn(C)c3c1)c1nnc(C)n1-2 [Example 346, N-[8-[[2-[(9S)-7-(4-chlorophenyl)-4,5,13-trimethyl-3-thia-1,8,11,12-tetraazatricyclo[8.3.0.02,6]trideca-2(6),4,7,10,12-pentaen-9-yl]acetyl]amino]octyl]-3-[3-(2,4-dioxo-1,3-diazepan-1-yl)-1-methyl-indazol-6-yl]propanamide]	–
< 50	Cc1sc2c(c1C)C(c1ccc(Cl)cc1)=N[C@@H](CC(=O)NCCCCCCCNC(=O)COc1cccc(C(=O)NC3CCCC(=O)NC3=O)n1)c1nnc(C)n1-2 (stereo partly drawn) [Example 347, 6-[2-[7-[[2-[(9S)-7-(4-chlorophenyl)-4,5,13-trimethyl-3-thia-1,8,11,12-tetraazatricyclo[8.3.0.02,6]trideca-2(6),4,7,10,12-pentaen-9-yl]acetyl]amino]heptylamino]-2-oxo-ethoxy]-N-(2,7-dioxoazepan-3-yl)pyridine-2-carboxamide]	–
< 50	Cc1sc2c(c1C)C(c1ccc(Cl)cc1)=N[C@@H](CC(=O)NCCCCCCCCNC(=O)/C=C/c1cccc3c1N(C)C(=O)C3(C)N1C=CCC(=O)NC1=O)c1nnc(C)n1-2 (stereo partly drawn) [Example 348, (E)-N-[8-[[2-[(9S)-7-(4-chlorophenyl)-4,5,13-trimethyl-3-thia-1,8,11,12-tetrazatricyclo[8.3.0.02,6]trideca-2(6),4,7,10,12-pentaen-9-yl]acetyl]amino]octyl]-3-[3-(2,4-dioxo-5H-1,3-diazepin-1-yl)-1,3-dimethyl-2-oxoindolin-7-yl]prop-2-enamide]	–
< 50	Cc1sc2c(c1C)C(c1ccc(Cl)cc1)=N[C@@H](CC(=O)NCCCCCCCNC(=O)Cn1c(=O)c(=O)n(C3CCCC(=O)NC3=O)c3ccccc31)c1nnc(C)n1-2 (stereo partly drawn) [Example 350, 2-[(9S)-7-(4-chlorophenyl)-4,5,13-trimethyl-3-thia-1,8,11,12-tetraazatricyclo[8.3.0.02,6]trideca-2(6),4,7,10,12-pentaen-9-yl]-N-[7-[[2-[4-(2,7-dioxoazepan-3-yl)-2,3-dioxo-quinoxalin-1-yl]acetyl]amino]heptyl]acetamide]	–
< 50	Cc1sc2c(c1C)C(c1ccc(Cl)cc1)=N[C@@H](CC(=O)NCCCCCCCCNC(=O)CN1C(=O)[C@@](C)(N3CCCC(=O)NC3=O)c3ccccc31)c1nnc(C)n1-2 [Example 352, 2-[(9S)-7-(4-Chlorophenyl)-4,5,13-trimethyl-3-thia-1,8,11,12-tetraazatricyclo[8.3.0.02,6]trideca-2(6),4,7,10,12-pentaen-9-yl]-N-[8-[[2-[3-(2,4-dioxo-1,3-diazepan-1-yl)-3-methyl-2-oxoindol-1-yl]acetyl]amino]octyl]acetamide]	–

More lines, now with the values behind:

SMILES	Kd (CRBN truncate (318-426)) [µM]	further results
Cn1c(=O)n([C@@H]2CCCC(=O)NC2=O)c2cccc(I)c21 (stereo in doubt) [Example 211-1, 3-(4-Iodo-3-methyl-2-oxobenzimidazol-1-yl) azepane-2,7-dione]	–	ee Normalized to 100 at 0 min ([1]; 0 h, pH 7.4, 37° C.): 100; ee ([1]; 0 h, pH 7.4, 37° C., CH3CN/0.1 M N-methylmorpholine aqueous solution): 99.43; ee ([1]; 24 h, pH 7.4, 37° C.): 87.71; ee Normalized to 100 at 0 min ([1]; 24 h, pH 7.4, 37° C.): 88.21; ee ([1]; 48 h, pH 7.4, 37° C.): 77.71; ee Normalized to 100 at 0 min ([1]; 48 h, pH 7.4, 37° C.): 78.16; ee ([1]; 72 h, pH 7.4, 37° C.): 70.06; ee Normalized to 100 at 0 min ([1]; 72 h, pH 7.4, 37° C.): 70.46; ee ([1]; 167 h, pH 7.4, 37° C.): 41.83; ee Normalized to 100 at 0 min ([1]; 167 h, pH 7.4, 37° C.): 42.07; ee ([1]; Initial): 99.44
Cc1sc2c(c1C)C(c1ccc(Cl)cc1)=N[C@@H](CC(=O)NCCCCCCCCCCC(=O)N1CCC(c3cnc(N4CCC5(CCCC(=O)NC5=O)C4)nc3)CC1)c1nnc(C)n1-2 (stereo partly drawn) [Example 354, 2-[(9S)-7-(4-Chlorophenyl)-4,5,13-trimethyl-3-thia-1,8,11,12-tetraazatricyclo[8.3.0.02,6]trideca-2(6),4,7,10,12-pentaen-9-yl]-N-[11-[4-[2-(6,8-dioxo-2,7-diazaspiro[4.6]undecan-2-yl)pyrimidin-5-yl]piperidin-1-yl]-11-oxoundecyl]acetamide]	< 50	–
Cc1sc2c(c1C)C(c1ccc(Cl)cc1)=N[C@@H](CC(=O)NCCCCCCCCCCC(=O)N1CCC(c3cccc(NC45CCC(CC4)C(=O)NC5=O)c3)CC1)c1nnc(C)n1-2 [Example 355, 2-[(9S)-7-(4-chlorophenyl)-4,5,13-trimethyl-3-thia-1,8,11,12-tetraazatricyclo[8.3.0.02,6]trideca-2(6),4,7,10,12-pentaen-9-yl]-N-[11-[4-[3-[(2,4-dioxo-3-azabicyclo[3.2.2]nonan-1-yl)amino]phenyl]piperidin-1-yl]-11-oxoundecyl]acetamide]	50 to 100	–
Cc1sc2c(c1C)C(c1ccc(Cl)cc1)=N[C@@H](CC(=O)NCCCCCCCCCCC(=O)N1CCC(c3ccc(OC4CCCC(=O)NC4=O)cc3)CC1)c1nnc(C)n1-2 (some centres unmarked) [Example 356]	< 50	–
Cc1sc2c(c1C)C(c1ccc(Cl)cc1)=N[C@@H](CC(=O)NCCCCCCCCCCC(=O)N1CCc3c(ncnc3N3CC4(CC(=O)N(C5CCC(=O)NC5=O)C4=O)C3)C1)c1nnc(C)n1-2 (stereo partly drawn) [Example 357, 2-[(9S)-7-(4-chlorophenyl)-4,5,13-trimethyl-3-thia-1,8,11,12-tetraazatricyclo[8.3.0.02,6]trideca-2(6),4,7,10,12-pentaen-9-yl]-N-[11-[4-[6-(2,6-dioxo-3-piperidyl)-5,7-dioxo-2,6-diazaspiro[3.4]octan-2-yl]-6,8-dihydro-5H-pyrido[3,4-d]pyrimidin-7-yl]-11-oxo-undecyl]acetamide]	< 50	–
C[C@@H]1Cc2c([nH]c3ccccc23)[C@@H](c2cnc(N3CCC(CN(C)CCCCCCCc4cccc5c4n(C)c(=O)n5C4CCCC(=O)NC4=O)CC3)nc2)N1CC(C)(C)F (stereo partly drawn) [Example 360-3, 3-[4-[7-[[1-[5-[(1R,3R)-2-(2-fluoro-2-methyl-propyl)-3-methyl-1,3,4,9-tetrahydropyrido[3,4-b]indol-1-yl]pyrimidin-2-yl]-4-piperidyl]methyl-methyl-amino]heptyl]-3-methyl-2-oxo-benzimidazol-1-yl]azepane-2,7-dione]	< 50	–
C[C@@H]1Cc2c([nH]c3ccccc23)[C@@H](c2cnc(N3CCC(CN(C)CCCCCCCc4ccc(C(=O)N5CCC6(CCCC(=O)NC6=O)C5)cc4)CC3)nc2)N1CC(C)(C)F (stereo partly drawn) [Example 361-2, 2-[4-[7-[[1-[5-[(1R,3R)-2-(2-fluoro-2-methyl-propyl)-3-methyl-1,3,4,9-tetrahydropyrido[3,4-b]indol-1-yl]pyrimidin-2-yl]-4-piperidyl]methyl-methyl-amino]heptyl]benzoyl]-2,7-diazaspiro[4.6]undecane-6,8-dione]	< 50	–
